Reference: patent publication US20210188856A1, “CRYSTAL FORM OF HYDROCHLORIDE OF PYRAZOLOHETEROARYL DERIVATIVE AND PREPARATION METHOD” (JIANGSU HENGRUI MEDICINE CO., LTD., priority 2018, published 2021)

Experiments:
human TLR7 = target: T1, human TLR7 (Homo sapiens, UniProt Q9NYK1); experiment: Agonistic effect on human TLR7 (HEK-Blue hTLR7 cells); format: cell-based
T1 construct: host or cells: HEK-Blue hTLR7 (HEK293-derived) stably transfected cells
T1 sequence (Q9NYK1 27-1049): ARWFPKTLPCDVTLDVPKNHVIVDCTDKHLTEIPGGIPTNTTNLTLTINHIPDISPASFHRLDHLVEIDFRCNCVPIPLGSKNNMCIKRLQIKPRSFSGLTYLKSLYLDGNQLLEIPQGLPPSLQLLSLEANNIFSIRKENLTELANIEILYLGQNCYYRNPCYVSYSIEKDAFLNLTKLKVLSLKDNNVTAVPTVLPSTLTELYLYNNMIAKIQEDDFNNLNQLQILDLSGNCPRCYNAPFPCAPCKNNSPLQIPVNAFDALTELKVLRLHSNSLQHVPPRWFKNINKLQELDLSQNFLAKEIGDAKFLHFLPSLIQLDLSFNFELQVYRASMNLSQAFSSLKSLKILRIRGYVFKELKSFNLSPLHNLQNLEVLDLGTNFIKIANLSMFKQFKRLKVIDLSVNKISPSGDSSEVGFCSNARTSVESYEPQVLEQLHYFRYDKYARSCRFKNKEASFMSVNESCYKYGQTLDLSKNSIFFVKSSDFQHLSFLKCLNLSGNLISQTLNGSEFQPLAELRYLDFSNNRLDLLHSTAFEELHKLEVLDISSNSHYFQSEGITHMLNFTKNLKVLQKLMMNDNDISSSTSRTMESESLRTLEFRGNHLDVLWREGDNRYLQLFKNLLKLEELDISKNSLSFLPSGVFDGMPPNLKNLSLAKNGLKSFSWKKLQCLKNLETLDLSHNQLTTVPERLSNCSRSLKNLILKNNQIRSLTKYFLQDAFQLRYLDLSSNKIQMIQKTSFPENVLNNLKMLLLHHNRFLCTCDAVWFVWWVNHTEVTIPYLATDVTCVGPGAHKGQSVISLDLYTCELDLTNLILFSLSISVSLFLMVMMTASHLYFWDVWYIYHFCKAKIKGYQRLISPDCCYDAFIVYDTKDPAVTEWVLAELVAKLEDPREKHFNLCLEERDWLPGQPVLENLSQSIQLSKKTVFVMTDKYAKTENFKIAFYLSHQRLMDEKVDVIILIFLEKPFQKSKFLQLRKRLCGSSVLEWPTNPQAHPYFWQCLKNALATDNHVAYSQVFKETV
Procedure: The agonistic effect of the compound represented by formula (I) on the hTLR7 protein expressed in HEK-Blue™ hTLR7 stably transfected cells was determined by the following experimental method:
A bag of HEK-Blue detection dry powder was dissolved in 50 mL of water free of endotoxin, and the solution was then placed in an incubator at 37° C. for 10 minutes followed by sterile filtration to prepare a HEK-Blue detection medium. The compound was firstly formulated into a 20 mM stock solution, then diluted with pure DMSO to a maximum concentration of 6×10^6 nM, and a total of 10 points were obtained by a 3-fold gradient dilution.
The above formulated compound was firstly diluted 20-fold with the medium, then 20 μL of the diluted compound was added to each well. The supernatant was removed from the HEK-Blue™ hTLR7 cells, to which 2-5 mL of pre-warmed PBS was then added. The cells were placed in an incubator for 1-2 minutes, gently pipetted, and counted by trypan blue staining. The cells were re-suspended in the HEK-Blue detection medium, and the concentration was adjusted to 2.2×10^5 cells/mL. […]
The plate was read with a microplate reader at a wavelength of 620 nm. The corresponding OD values were obtained, and the EC50 value of the compound was calculated by Graphpad Prism.

CYP3A4 = target: T2, CYP3A4 (Homo sapiens, UniProt P08684); experiment: Inhibition of testosterone metabolite site of CYP3A4 in human liver microsome; format: in vitro ADME
T2 construct: CYP3A4 in human liver microsome; tissue Corning Gentest; host or cells: human liver microsomes
T2 sequence (P08684 whole entry): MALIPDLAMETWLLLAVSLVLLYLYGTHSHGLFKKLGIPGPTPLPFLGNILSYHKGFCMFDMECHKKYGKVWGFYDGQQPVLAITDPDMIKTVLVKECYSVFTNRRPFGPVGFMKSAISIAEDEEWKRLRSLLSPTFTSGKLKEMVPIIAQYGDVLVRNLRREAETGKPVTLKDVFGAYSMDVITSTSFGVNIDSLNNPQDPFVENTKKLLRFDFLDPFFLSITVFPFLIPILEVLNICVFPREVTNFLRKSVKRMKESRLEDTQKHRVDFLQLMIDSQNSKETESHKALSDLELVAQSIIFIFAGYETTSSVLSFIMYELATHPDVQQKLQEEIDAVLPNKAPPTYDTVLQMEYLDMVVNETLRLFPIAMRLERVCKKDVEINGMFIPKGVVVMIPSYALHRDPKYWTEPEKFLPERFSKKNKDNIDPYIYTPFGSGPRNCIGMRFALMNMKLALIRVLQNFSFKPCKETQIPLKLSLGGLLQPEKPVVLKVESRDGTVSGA
Procedure: The effect of the compound represented by formula (I) on the enzyme activity of testosterone metabolite site of CYP3A4 in human liver microsome was determined by the following experimental method:
100 mM PBS buffer was formulated, which was then used to formulate 2.5 mg/mL microsome solution and 5 mM NADPH solution. The 5× concentration of the compound working solution was diluted with PBS gradient (150, 50, 15, 5, 1.5, 0.15, 0.015, 0 μM). The 5× concentration of ketoconazole working solution was diluted with PBS gradient (150, 50, 15, 5, 1.5, 0.15, 0.015, 0 μM). […] working solution was diluted with PBS to a concentration of 50 μM.
20 μL of the 2.5 mg/mL microsome solution, 20 μL of the 50 μM […] working solution, 20 μL of MgCl2 solution and 20 μL of the compound working solution (150, 50, 15, 5, 1.5, 0.15, 0.015, 0 μM, different reaction systems for each concentration) were taken respectively and mixed well. For the positive control group, the compound was replaced with the same concentration of ketoconazole. The mixture together with the 5 mM NADPH solution was pre-incubated at 37° C. for 5 minutes. […] 80 μL of the supernatant was taken and analyzed by LC-MS/MS.
The data was calculated by Graphpad Prism to obtain the IC50 value of the compound on the testosterone metabolite site of CYP3A4.

In the case of `CCCCOc1nc(N)c2cnn(Cc3ccc(CN4CCCC4)cc3)c2n1` [compound represented by formula (I), 6-Butoxy-1-(4-(pyrrolidin-1-ylmethyl)benzyl)-1H-pyrazolo[3,4-d]pyrimidin-4-amine], the “agonistic effect on human TLR7 (in words)” value (human TLR7; HEK-Blue hTLR7 cells) is reported as “significant agonistic effect”, the EC50 (human TLR7; HEK-Blue hTLR7 stably transfected cells) is reported as 28 nM and the “inhibitory effect on testosterone metabolite site of CYP3A4 (in words)” value (CYP3A4) is reported as “weak inhibitory effect”. It also gave an IC50 (CYP3A4; testosterone probe) of 4 µM.
